{
  "source": "patent US7618986B2",
  "about": "“Method of treating latent tuberculosis” (priority 2006, dated 2009)",
  "key": {"[1]": {"system": "Mycobacterium tuberculosis H37Rv", "assay": "Microplate Alamar Blue Assay (MABA), aerobic", "format": "cell-based"}, "[2]": {"system": "M. tuberculosis H37Rv", "assay": "Hypoxic (anaerobic) clonogenic MBC assay, dormant H37Rv", "format": "cell-based", "details": "for MBC: Mycobacterium tuberculosis"}, "[3]": {"system": "M. tuberculosis H37Rv", "details": "hypoxic MBC assay; cited from earlier work"}, "[4]": {"details": "in vivo, po, 600 mg; cited from earlier work"}, "[5]": {"system": "Mycobacterium tuberculosis H37Rv", "details": "MABA, 7H12 media, 90% reduction in fluorescence; cited from earlier work"}, "[6]": {"assay": "Toxicity study in dogs", "format": "in vivo", "details": "i.v. daily 10.95 mg/kg"}, "[7]": {"assay": "Plasma concentration after administration to CD2F1 mice", "format": "in vivo", "source_text": "(§1) An oral MTD was not determined."}, "[8]": {"system": "VERO cells", "assay": "Cytotoxicity against VERO cells (MTT, 72 hours exposure)", "format": "cell-based", "details": "for IC50: Chlorocebus sabaeus, Vero, read-out: IC50 in VERO cells"}, "[9]": {"assay": "Water solubility and stability of aqueous stock solutions", "format": "physicochemical", "details": "for solubility in water: hydrochloride salt", "description": "Commercially available 4,7-dichloroquinoline (1) first was converted to the 4-fluoro-derivative (2) by refluxing for 6 hours in DMSO with lyophilized potassium fluoride (KF) (1.5 eq) from a 5% aqueous solution.\nHRMS (VG 70-250SE mass spectrometer): Calculated for C16H16ClN5O2 (free amine): m/z 345.0992. […] FAB (VG 70-250SE mass spectrometer). Calculated for C16H17ClN5O2 (M+): m/z 346."}, "[10]": {"assay": "Stability in human plasma", "format": "in vitro ADME"}, "[11]": {"assay": "Toxicity (MTD, adverse effects) in mice", "format": "in vivo", "source_text": "determination of MTD ([…], MTD) in vivo (C57BL/6 female mice, i.p. administration of single doses, 1 week duration); and\nas §1"}, "[12]": {"assay": "Toxicity study in rats", "format": "in vivo", "details": "i.v. daily 16 mg/kg, female rats"}, "[13]": {"details": "H37RV, pH 6.7, read-out: H37Rv MBC (hypoxic)"}, "[14]": {"details": "H37RV, present day anti-TB drugs as positive controls, read-out: H37Rv MBC (hypoxic assay)"}, "[15]": {"details": "dormant H37Rv cells, ranges depending on the assay (Table 2), read-out: MBC (minimum bactericidal concentration)"}, "[16]": {"details": "dormant H37Rv cells, ranges depending on the assay (Table 2)"}, "[17]": {"details": "present day anti-TB drugs as positive controls"}, "[18]": {"details": "pH 6.7, read-out: % Inh (aerobic)"}, "[19]": {"details": "H37RV, read-out: MBC (minimum bactericidal concentration)"}},
  "note": "Counter-ions that a name gives are not always drawn. Like-named read-outs stand apart in the source and are kept apart here.",
  "data": [
    {"compound": "Cc1nc(C(F)(F)F)nc(NCCCn2ccnc2[N+](=O)[O-])c1C", "note": "[CF3PM]", "values": [
      {"measurement": "inhibition at 6.25 µg/mL", "setting": "[1]; aerobic conditions, 6.25 μg/mL, pH 6.7-6.8, read-out: % Inh (aerobic)", "result": 23, "unit": "%"},
      {"measurement": "MBC", "setting": "[2]; [13]", "result": "7.01 to 25", "unit": "µg/mL"}
    ]},
    {"compound": "Cc1ncc([N+](=O)[O-])n1CCO", "note": "[Metronidazole, metronidazole]", "values": [
      {"measurement": "activity in hypoxic assay", "setting": "[3]", "result": "activity is observed only at very high concentrations"}
    ]},
    {"compound": "CO[C@H]1/C=C/O[C@@]2(C)Oc3c(C)c(O)c4c(O)c(c(/C=N/N5CCN(C)CC5)c(O)c4c3C2=O)NC(=O)/C(C)=C\\C=C\\[C@H](C)[C@H](O)[C@@H](C)[C@@H](O)[C@@H](C)[C@H](OC(C)=O)[C@@H]1C", "note": "[Rifampin, rifampin]", "values": [
      {"measurement": "Cmax", "setting": "[4]", "result": 8000, "unit": "ng/mL"},
      {"measurement": "MBC", "setting": "[2]; [14]", "result": 2.5, "unit": "µg/mL"},
      {"measurement": "MBC", "setting": "[2]; [15]", "result": 2.5, "unit": "µg/mL"}
    ]},
    {"compound": "capreomycin", "values": [
      {"measurement": "MBC (minimum bactericidal concentration)", "setting": "[2]; [16]", "result": 37.5, "unit": "µg/mL"},
      {"measurement": "H37Rv MBC (hypoxic assay)", "setting": "[2]; [17]", "result": 37.5, "unit": "µg/mL"}
    ]},
    {"compound": "NNC(=O)c1ccncc1", "note": "[Isoniazid, isoniazid]", "values": [
      {"measurement": "MBC", "setting": "[2]; [14]", "result": "> 100", "unit": "µg/mL"},
      {"measurement": "MBC", "setting": "[2]; [15]", "result": "> 100", "unit": "µg/mL"},
      {"measurement": "MBC (minimum bactericidal concentration)", "setting": "[2]; [16]", "result": "> 100", "unit": "µg/mL"},
      {"measurement": "expected MIC range (quality control)", "setting": "[5]", "result": "0.025 to 0.1", "unit": "µg/mL"}
    ]},
    {"compound": "CC[C@H]1OC(=O)[C@H](C)[C@@H](O[C@H]2C[C@@](C)(OC)[C@@H](O)[C@H](C)O2)[C@H](C)[C@@H](O[C@@H]2O[C@H](C)C[C@H](N(C)C)[C@H]2O)[C@](C)(OC)C[C@@H](C)C(=O)[C@H](C)[C@@H](O)[C@]1(C)O", "note": "[Clarithromycin, clarithromycin]", "values": [
      {"measurement": "MBC", "setting": "[2]; [14]", "result": "> 312", "unit": "µg/mL"},
      {"measurement": "MBC", "setting": "[2]; [15]", "result": "> 312", "unit": "µg/mL"},
      {"measurement": "MBC (minimum bactericidal concentration)", "setting": "[2]; [16]", "result": "> 312.5", "unit": "µg/mL"}
    ]},
    {"compound": "[H]/N=C(/N)N[C@H]1[C@H](O)[C@@H](O)[C@H](O[C@@H]2O[C@@H](C)[C@](O)(C=O)[C@H]2O[C@@H]2O[C@@H](CO)[C@H](O)[C@@H](O)[C@@H]2NC)[C@@H](N/C(N)=N\\[H])[C@@H]1O", "note": "[Streptomycin, streptomycin]", "values": [
      {"measurement": "MBC", "setting": "[2]; [14]", "result": 12.5, "unit": "µg/mL"},
      {"measurement": "MBC", "setting": "[2]; [15]", "result": "> 12.5", "unit": "µg/mL"},
      {"measurement": "MBC (minimum bactericidal concentration)", "setting": "[2]; [16]", "result": "> 12.5", "unit": "µg/mL"}
    ]},
    {"compound": "O=[N+]([O-])c1nccn1CCCNc1ccnc2cc(Cl)ccc12", "note": "[NLCQ-1, 4-[3-(2-Nitro-1-imidazolyl)-propylamino]-7-chloroquinoline hydrochloride]", "values": [
      {"measurement": "adverse effects", "setting": "[6]", "result": "no adverse effects"},
      {"measurement": "peak plasma concentration", "setting": "[7]; i.p. injection of 10 mg/kg", "result": 8.9, "unit": "µg/mL"},
      {"measurement": "bioavailability", "setting": "[7]; mouse, plasma, oral administration of 10 mg/kg", "result": 29, "unit": "%"},
      {"measurement": "peak plasma concentration", "setting": "[7]; oral administration of 10 mg/kg", "result": 0.461, "unit": "µg/mL"},
      {"measurement": "IC50", "setting": "[8]", "result": 147, "unit": "µg/mL"},
      {"measurement": "hydrophilicity (aqueous solubility) compared with PA-824", "setting": "[9]", "result": "more hydrophilic"},
      {"measurement": "solubility in water", "setting": "[9]", "result": "soluble in water"},
      {"measurement": "stability in human plasma", "setting": "[10]", "result": "good stability in human plasma"},
      {"measurement": "inhibition at 6.25 µg/mL", "setting": "[1]; [18]", "result": 0, "unit": "%"},
      {"measurement": "MTD at 1 week", "setting": "[11]; female, C57BL/6, mouse, in vivo, ip, single dose", "result": 30, "unit": "mg/kg"},
      {"measurement": "adverse effects", "setting": "[11]; i.p. 30 mg/kg bolus or 45 mg/kg as 3 fractions of 15 mg/kg every two hours daily, mice", "result": "no adverse effects"},
      {"measurement": "MTD", "setting": "[11]; mouse, in vivo, ip, multiple doses", "result": "≥ 45", "unit": "mg/kg"},
      {"measurement": "MBC", "setting": "[2]; [13]", "result": 3.1, "unit": "µg/mL"},
      {"measurement": "MBC", "setting": "[2]; [19]", "result": "3.1 to 18.4", "unit": "µg/mL"},
      {"measurement": "adverse effects", "setting": "[12]", "result": "no adverse effects"}
    ]},
    {"compound": "CN(C)c1ccc(O)c2c1C[C@H]1C[C@H]3[C@H](N(C)C)C(O)=C(C(N)=O)C(=O)[C@@]3(O)C(O)=C1C2=O", "note": "[Minocyclin, minocyclin]", "values": [
      {"measurement": "MBC (minimum bactericidal concentration)", "setting": "[2]; [16]", "result": ">156.25", "unit": "µg/mL"},
      {"measurement": "MBC (minimum bactericidal concentration)", "setting": "[2]; dormant H37Rv cells, ranges depending on the assay (Table 2), listed as minocyclin", "result": "> 156.25", "unit": "µg/mL"},
      {"measurement": "H37Rv MBC (hypoxic assay)", "setting": "[2]; [17]", "result": 156.25, "unit": "µg/mL"}
    ]},
    {"compound": "O=[N+]([O-])c1cn2c(n1)OC[C@@H](OCc1ccc(OC(F)(F)F)cc1)C2", "note": "[PA-824]", "values": [
      {"measurement": "IC50", "setting": "[8]; toxicity", "result": "> 640", "unit": "µg/mL"},
      {"measurement": "SI, selectivity index (IC50/MBC)", "setting": "[8]; VERO IC50 / MBC dormant H37Rv", "result": ">50-100"},
      {"measurement": "IC50 in VERO cells", "setting": "[8]; toxicity", "result": ">640", "unit": "µg/mL"},
      {"measurement": "MBC", "setting": "[2]; [19]", "result": "6.4 to 12.8", "unit": "µg/mL"}
    ]},
    {"compound": "O=[N+]([O-])c1nccn1CCCCNc1ccnc2cc(Cl)ccc12", "note": "[NLCQ-2, 4-[4-(2-nitro-1-imidazolyl)-butylamino]-7-chloroquinoline hydrochloride]", "values": [
      {"measurement": "IC50", "setting": "[8]", "result": "> 640", "unit": "µg/mL"},
      {"measurement": "IC50 in VERO cells", "setting": "[8]; toxicity, hydrochloride", "result": ">640", "unit": "µg/mL"},
      {"measurement": "hydrophilicity (aqueous solubility) compared with PA-824", "setting": "[9]", "result": "more hydrophilic"},
      {"measurement": "solubility in water", "setting": "[9]", "result": "soluble in water"},
      {"measurement": "inhibition at 6.25 µg/mL", "setting": "[1]; [18]", "result": 0, "unit": "%"},
      {"measurement": "MBC", "setting": "[2]; [13]", "result": 6.25, "unit": "µg/mL"},
      {"measurement": "MBC", "setting": "[2]; [19]", "result": "4.9 to 9.8", "unit": "µg/mL"}
    ]}
  ]
}
